Assay results published in ChEMBL document CHEMBL1201862, “PubChem BioAssay data set” (2004).
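Step 1: Grow cells in 96-well plates. Step 2: Expose to compound for 48 hours at 5 concentrations. Step 3: Interpolate endpoints linearly; if unreached, use highest concentration. GI50 is the concentration that inhibits growth by half.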 Activity calls are given as the source filed them. Rule as the data show it: active = GI50 up to about 1.1 µM and inactive = higher.

Experiments:
Experiment in all cases: growth of human tumour cells (NCI), 48 h
[1] = test system: 786-0
[2] = test system: A498
[3] = test system: A549
[4] = test system: ACHN
[5] = test system: BT-549
[6] = test system: CAKI-1
[7] = test system: CCRF-CEM
[8] = test system: COLO 205
[9] = test system: DU-145
[10] = test system: EKVX
[11] = test system: HCC 2998
[12] = test system: HCT-116
[13] = test system: HCT-15
[14] = test system: HOP-62
[15] = test system: HOP-92
[16] = test system: HT-29
[17] = test system: IGROV-1
[18] = test system: K562
[19] = test system: KM12
[20] = test system: LOX IMVI
[21] = test system: M14
[22] = test system: MCF7
[23] = test system: MDA-MB-231
[24] = test system: MDA-MB-435
[25] = test system: MDA-N
[26] = test system: MOLT-4
[27] = test system: NCI-H226
[28] = test system: NCI-H23
[29] = test system: NCI-H460
[30] = test system: NCI/ADR-RES
[31] = test system: OVCAR-3
[32] = test system: OVCAR-4
[33] = test system: OVCAR-5
[34] = test system: OVCAR-8
[35] = test system: PC-3
[36] = test system: RPMI-8226
[37] = test system: RXF 393
[38] = test system: SF-295
[39] = test system: SF-539
[40] = test system: SK-MEL-28
[41] = test system: SK-MEL-2
[42] = test system: SK-MEL-5
[43] = test system: SN12C
[44] = test system: SNB-19
[45] = test system: SNB-75
[46] = test system: SR
[47] = test system: SW-620
[48] = test system: T47D
[49] = test system: U-251
[50] = test system: UACC-257
[51] = test system: UACC-62
[52] = test system: UO-31
[53] = test system: HL-60
[54] = test system: Hs-578T
[55] = test system: Malme-3M
[56] = test system: NCI-H522
[57] = test system: SF-268
[58] = test system: SK-OV-3
[59] = test system: TK-10

In the case of `CC1(C)OCC2OC3([C@H]4OC(C)(C)O[C@@H]4CO)OC(C)(C)OC3C2O1` (stereo partly drawn), the GI50 [1] is reported as > 100 µM (inactive), the GI50 [2] is reported as > 100 µM (inactive) and the GI50 [3] is reported as > 100 µM (inactive). The GI50 [4] was > 100 µM (inactive), the GI50 [5] was > 100 µM (inactive) and the GI50 [6] was > 100 µM (inactive). The GI50 [7] was > 100 µM (inactive), the GI50 [8] was > 100 µM (inactive) and the GI50 [9] was > 100 µM (inactive). For the same compound, the GI50 [10] was > 100 µM (inactive), the GI50 [11] was > 100 µM (inactive) and the GI50 [12] was > 100 µM (inactive). For the same compound, the GI50 [13] was over 100 µM, the GI50 [14] was > 100 µM (inactive) and the GI50 [15] was > 100 µM (inactive). The GI50 [16] was > 100 µM (inactive), the GI50 [17] was > 100 µM (inactive) and the GI50 [18] was > 100 µM (inactive). The GI50 [19] was > 100 µM (inactive), the GI50 [20] was > 100 µM (inactive) and the GI50 [21] was > 100 µM (inactive). The GI50 [22] was > 100 µM (inactive), the GI50 [23] was > 100 µM (inactive) and the GI50 [24] was > 100 µM (inactive). The GI50 [25] was > 100 µM (inactive), the GI50 [26] was > 100 µM (inactive) and the GI50 [27] was > 100 µM (inactive). The GI50 [28] was > 100 µM (inactive), the GI50 [29] was > 100 µM (inactive) and the GI50 [30] was > 100 µM (inactive). For the same compound, the GI50 [31] was > 100 µM (inactive), the GI50 [32] was > 100 µM (inactive) and the GI50 [33] was > 100 µM (inactive). The GI50 [34] was > 100 µM (inactive), the GI50 [35] was > 100 µM (inactive) and the GI50 [36] was > 100 µM (inactive). The GI50 [37] was > 100 µM (inactive), the GI50 [38] was > 100 µM (inactive) and the GI50 [39] was > 100 µM (inactive). The GI50 [40] was > 100 µM (inactive), the GI50 [41] was > 100 µM (inactive) and the GI50 [42] was > 100 µM (inactive). The GI50 [43] was > 100 µM (inactive), the GI50 [44] was > 100 µM (inactive) and the GI50 [45] was > 100 µM (inactive). The GI50 [46] was > 100 µM (inactive), the GI50 [47] was > 100 µM (inactive) and the GI50 [48] was > 100 µM (inactive). For the same compound, the GI50 [49] was > 100 µM (inactive), the GI50 [50] was > 100 µM (inactive) and the GI50 [51] was > 100 µM (inactive). For the same compound, the GI50 [52] was > 100 µM (inactive).
For `Cn1cnc2c(OCC3CCCCC3)nc(N)nc21`, the GI50 [1] was > 100 µM (inactive), the GI50 [3] was > 100 µM (inactive) and the GI50 [4] was < 0.01 µM (active). For the same compound, the GI50 [5] was > 100 µM (inactive), the GI50 [6] was > 100 µM (inactive) and the GI50 [7] was > 100 µM (inactive). The GI50 [8] was > 100 µM (inactive), the GI50 [9] was > 100 µM (inactive) and the GI50 [10] was > 100 µM (inactive). For the same compound, the GI50 [11] was > 100 µM (inactive), the GI50 [12] was > 100 µM (inactive) and the GI50 [13] was over 100 µM. The GI50 [53] was > 100 µM (inactive), the GI50 [14] was > 100 µM (inactive) and the GI50 [15] was 32.4 µM (inactive). The GI50 [16] was 73.8 µM (inactive), the GI50 [54] was > 100 µM (inactive) and the GI50 [17] was 36.5 µM (inactive). For the same compound, the GI50 [18] was > 100 µM (inactive), the GI50 [19] was > 100 µM (inactive) and the GI50 [20] was 66.1 µM (inactive). For the same compound, the GI50 [21] was > 100 µM (inactive), the GI50 [22] was 11.7 µM (inactive) and the GI50 [23] was > 100 µM (inactive). For the same compound, the GI50 [24] was > 100 µM (inactive), the GI50 [25] was > 100 µM (inactive) and the GI50 [26] was > 100 µM (inactive). For the same compound, the GI50 [55] was > 100 µM (inactive), the GI50 [27] was 44.1 µM (inactive) and the GI50 [28] was > 100 µM (inactive). For the same compound, the GI50 [29] was > 100 µM (inactive), the GI50 [56] was > 100 µM (inactive) and the GI50 [30] was > 100 µM (inactive). The GI50 [31] was > 100 µM (inactive), the GI50 [32] was > 100 µM (inactive) and the GI50 [33] was > 100 µM (inactive). The GI50 [34] was > 100 µM (inactive), the GI50 [35] was > 100 µM (inactive) and the GI50 [36] was > 100 µM (inactive). The GI50 [37] was > 100 µM (inactive), the GI50 [57] was > 100 µM (inactive) and the GI50 [38] was > 100 µM (inactive). The GI50 [39] was > 100 µM (inactive), the GI50 [40] was > 100 µM (inactive) and the GI50 [41] was > 100 µM (inactive). For the same compound, the GI50 [42] was 70.6 µM (inactive), the GI50 [58] was > 100 µM (inactive) and the GI50 [43] was > 100 µM (inactive). For the same compound, the GI50 [44] was > 100 µM (inactive), the GI50 [45] was 36.3 µM (inactive) and the GI50 [47] was > 100 µM (inactive). The GI50 [59] was > 100 µM (inactive), the GI50 [49] was > 100 µM (inactive) and the GI50 [50] was > 100 µM (inactive). The GI50 [51] was > 100 µM (inactive) and the GI50 [52] was 72.9 µM (inactive).
